This note sets out measurements from paper PMC6196558, “The nitrilase PtNIT1 catabolizes herbivore-induced nitriles in Populus trichocarpa” (BMC Plant Biology, 2018).

One data set deals with T1, PtNIT1 (Populus trichocarpa, UniProt A0A2Z4EGE4).
T1 construct: tag cleavage not mentioned
T1 sequence (A0A2Z4EGE4 1-377): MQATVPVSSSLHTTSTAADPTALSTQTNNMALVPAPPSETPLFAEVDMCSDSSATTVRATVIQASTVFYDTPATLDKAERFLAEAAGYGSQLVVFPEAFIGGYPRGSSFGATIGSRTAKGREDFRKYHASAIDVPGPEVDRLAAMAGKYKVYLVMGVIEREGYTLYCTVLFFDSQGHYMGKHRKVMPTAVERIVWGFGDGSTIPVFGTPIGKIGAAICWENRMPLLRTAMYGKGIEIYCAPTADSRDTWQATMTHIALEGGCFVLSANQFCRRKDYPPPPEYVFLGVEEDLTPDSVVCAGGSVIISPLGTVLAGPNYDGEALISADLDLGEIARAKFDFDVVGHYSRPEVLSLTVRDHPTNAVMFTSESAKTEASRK
The experiment in a line: LC-MS/MS product formation. The data set is classed as biochemical. To be noted: potassium phosphate pH 7.2, 32 °C (standard assay).

Substrate in data set [1]: N#CCc1c[nH]c2ccccc12
The experiment in a line: LC-MS/MS product formation. To be noted: potassium phosphate pH 7.2, 32 °C (standard assay). The data set is classed as biochemical, Populus trichocarpa.

The Km is the substrate concentration at which the rate is half of its maximum. Take `N#CCc1ccccc1` [benzyl cyanide]: the Michaelis constant (Km) on PtNIT1 was 24.7 ± 1.8 mM.
With `N#CC[C@H](N)C(=O)O` [β-cyanoalanine], the Km at PtNIT1 amounted to 1.2 ± 0.1 mM.

B1: PtNIT1 (Populus trichocarpa) (protein)
chain: T1 sequence (A0A2Z4EGE4 1-377)
notes: tag cleavage not mentioned
On to B1, for which the Km in data set [1] came to 10.0 ± 1.3 mM.
